Measurements taken from PMC9112550, “Optimization of the antimicrobial peptide Bac7 by deep mutational scanning” (BMC Biology, 2022).
Several values for one entry are separate records, joined by “and”; a condition that tells them apart may be missing. Identical values can stand only once. Where no end group is shown, it is not given here.

Assays:
E. coli TOP10 = test: Membrane damage assay in MHB II (GFP loss, PI uptake); format: cell-based; conditions: n = 3
mouse red blood cells = test: Hemolysis assay; format: cell-based; conditions: 1 h, 37°C, DPBS, relative to Triton-X100 lysis control, triplicates
Procedure: Mouse blood was obtained from the ETH Phenomics Center. The erythrocytes were isolated by centrifugation at 500 × g for 10 min and removal of the blood plasma. The cells were washed three times by gently resuspending them in an equal volume of DPBS followed by centrifugation. After the last resuspension, the cells were diluted 1:50 in DPBS. For the hemolysis assay, a log2-serial dilution of each peptide was prepared as described for the MIC but using DPBS and 96-well plates (U-bottom, PP, 650201, Greiner) with a final volume of 100 μl. As lysis control, 2.5% Triton-X100 in DPBS was used in well 10, well 11 served as non-treated control (no peptide added), and well 12 as blank. To each well of the dilution plate, 100 μl of the red blood cells suspension was added. The plate was incubated for 1 h at 37°C. After incubation, the plate was centrifuged at 500 × g for 10 min and 100 μl of the supernatant was transferred to a clean 96-well plate (F-bottom, PS, 655101, Greiner). The absorbance was measured at 540 nm using an Infinite M1000 PRO plate reader (Tecan) and corrected by the measurements from the untreated wells. The lysis of each peptide concentration was expressed relative to the lysis control (set as 100% lysis). The hemolysis assay was performed in biological triplicates.

HEK 293 ribosomes = test: In vitro translation inhibition assay, HEK 293 S30 extract; format: biochemical, human; conditions: firefly luciferase mRNA, 800 to 0.08 μM, 1 h, 37°C, n = 9, p<10^−5, Wilcoxon
Procedure: To measure inhibition of the HEK 293 ribosome, an S30 extract was prepared from HEK 293-F cells. Suspension cultures of HEK 293-F cells (Gibco, Thermo Fisher) were maintained in 293 SFM II medium (Thermo Fisher) supplemented with 4 mM of L-glutamine according to the manufacturer’s instructions. Cells in the logarithmic phase were harvested by centrifugation for 18 min at 200 × g at 4°C. The cell pellet was washed twice with ice-cold PBS and pelleted again for 5 min at 200 × g at 4°C. Subsequently, cells were washed twice with ice-cold washing buffer (35 mM HEPES-KOH buffer pH 7.4, 146 mM NaCl, 11 mM D-(+)-glucose) and centrifuged for 5 min at 200 × g and 4°C. Cells were then resuspended in twice the volume of hypotonic buffer (20 mM HEPES-KOH buffer pH7.4, 10 mM KCl, 1.5 mM magnesium acetate, 1 mM DTT) and incubated for 10 min on ice. Cells were disrupted using a glass Dounce tissue homogenizer (Kimble, DWK Life Sciences, Mainz, Germany). After disruption, 0.1 volume of 10fold buffer (200 mM HEPES-KOH buffer pH 7.4, 1.2 M potassium acetate, 40 mM magnesium acetate, 50 mM DTT) of the total amount of hypotonic buffer was added. Cell debris was pelleted by centrifuging the lysate for 10 min at 700 × g at 4°C. The supernatant was then centrifuged for 15 min at 30,000 × g at 4°C.
(BIO-TEK FLx80, Witec AG, Littau, CH). […] Y=Bottom + (Top-Bottom)/(1+10^((X-LogIC50)))”.

E. coli ATCC 25922 = test: In vivo efficacy, murine septicemia model; conditions: 10 CD-1 mice, up to 3 days
Procedure: CD-1 mice (7 weeks old, 27–28 g female) were used (Charles River, France). These animals were housed for a week of acclimation period before the experiment in a protected area in the ‘Centre de Zootechnie de l’Université de Bourgogne’ (Biosafety level 2 facility) and fed ad libitum according to the current recommendations by the European Institute of Health. Housing took place in rooms where a 12-h/12 h light/dark cycle is applied, the temperature ranges from 18 to 21°C and the relative humidity from 45 to 65%. The animal facility is authorized by the French authorities (Agreement N° C 21 464 04 EA). […]
For animal experiments, Bac7PS was synthesized at Genscript as acetate salt and with a purity of 92%. […] First, the maximum tolerated dose (MTD) for the peptide was determined by testing different peptide doses in 8 groups with 5 animals per group. The peptide solution was administered once by intraperitoneal (IP) injection with a volume of between 94 and 240 μl (depending on the weight of the animal and the dosage) and the animals were monitored for 2 h following the injection, then 6 to 8 h later, and then once or twice a day, depending on the clinical status, up to 5 days post-injection. […] As endpoint, the wellbeing and survival rate, on a twice daily based evaluation for up to 3 days, was monitored.

[1] = approximately 16-fold above its MIC (~35 μM)
[2] = at the MIC up to 8-fold higher concentrations

Question: Which PI-positive cells (E. coli TOP10; [1]) does the source give for RRIRIRPPRLPRPRPRPYFMPRP [Bac7PS] here?
Answer: ~ 3%

Question: And the “cells that lost GFP” value (E. coli TOP10; [1])?
Answer: 26%

Question: And the PI-positive cells (E. coli TOP10; [2])?
Answer: ~ 1%

Question: What about the “cells that retained GFP levels” value (E. coli TOP10; [2]) of the same sequence?
Answer: ~ 99%

Question: What about the “Hemolysis of mouse red blood cells” value (mouse red blood cells; 1xMIC (MIC measured for E. coli ATCC 25922)) of the same sequence?
Answer: < 4% and 3.1%

Question: And the “Hemolysis of mouse red blood cells” value (mouse red blood cells; 4xMIC (MIC measured for E. coli ATCC 25922))?
Answer: < 7% and 3.8%

Question: And the “mean increase in ribosomal binding (translation inhibition IC50), HEK 293 ribosomes, compared to Bac7_1-23” value (HEK 293 ribosomes)?
Answer: 38%

Question: What about the survival (E. coli ATCC 25922; 10 mg kg^−1 IP twice (1 and 4 h post-infection)) of the same sequence?
Answer: 60%

Question: And the survival (E. coli ATCC 25922; 30 mg kg^−1 IP twice (1 and 4 h post-infection))?
Answer: 80%
